pIC50: −log10 of the molar value. Each block holds one compound with its values, some of them ahead of it.
Test system: 252836-082-R-J2-PDC tumor spheroids, viability
Experiment: Anticancer human tumor 252836-082-R-J2-PDC patient-derived head and neck squamous cell carcinoma cell line growth inhibition [PI3K]
Conditions: spheroids with HUVEC and MSC; for pIC50: curve of first compound; for viability, T/C: stronger effect = lower value
How it was run: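 Viability of mixed-cell spheroids was determined after exposure to pairwise combinations, one partner being inavolisib, alpelisib, duvelisib or copanlisib. Highest tested concentration matched clinical Cmax where known and 10 microM where not, descending in half-log steps.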

[1] = second compound 0.0316 µM, first compound 0.000316 µM
[2] = second compound 0.0316 µM, first compound 0.001 µM
[3] = second compound 0.0316 µM, first compound 0.00316 µM
[4] = second compound 0.0316 µM, first compound 0.01 µM
[5] = second compound 0.0316 µM, first compound 0.0316 µM
[6] = second compound 0.0316 µM, first compound 0.1 µM
[7] = second compound 0.1 µM, first compound 0.000316 µM
[8] = second compound 0.1 µM, first compound 0.001 µM
[9] = second compound 0.1 µM, first compound 0.00316 µM
[10] = second compound 0.1 µM, first compound 0.01 µM
[11] = second compound 0.1 µM, first compound 0.0316 µM
[12] = second compound 0.1 µM, first compound 0.1 µM
[13] = second compound 0.316 µM, first compound 0.000316 µM
[14] = second compound 0.316 µM, first compound 0.001 µM
[15] = second compound 0.316 µM, first compound 0.00316 µM
[16] = second compound 0.316 µM, first compound 0.01 µM
[17] = second compound 0.316 µM, first compound 0.0316 µM
[18] = second compound 0.316 µM, first compound 0.1 µM
[19] = second compound 1 µM, first compound 0.000316 µM
[20] = second compound 1 µM, first compound 0.001 µM
[21] = second compound 1 µM, first compound 0.00316 µM
[22] = second compound 1 µM, first compound 0.01 µM
[23] = second compound 1 µM, first compound 0.0316 µM
[24] = second compound 1 µM, first compound 0.1 µM
[25] = second compound 3.16 µM, first compound 0.000316 µM
[26] = second compound 3.16 µM, first compound 0.001 µM
[27] = second compound 3.16 µM, first compound 0.00316 µM
[28] = second compound 3.16 µM, first compound 0.01 µM
[29] = second compound 3.16 µM, first compound 0.0316 µM
[30] = second compound 3.16 µM, first compound 0.1 µM
[31] = second compound 10 µM, first compound 0.000316 µM
[32] = second compound 10 µM, first compound 0.001 µM
[33] = second compound 10 µM, first compound 0.00316 µM
[34] = second compound 10 µM, first compound 0.01 µM
[35] = second compound 10 µM, first compound 0.0316 µM
[36] = second compound 10 µM, first compound 0.1 µM
[37] = second compound 0.0316 µM, first compound 0.316 µM
[38] = second compound 0.0316 µM, first compound 1 µM
[39] = second compound 0.0316 µM, first compound 3.16 µM
[40] = second compound 0.0316 µM, first compound 10 µM
[41] = second compound 0.1 µM, first compound 0.316 µM
[42] = second compound 0.1 µM, first compound 1 µM
[43] = second compound 0.1 µM, first compound 3.16 µM
[44] = second compound 0.1 µM, first compound 10 µM
[45] = second compound 0.316 µM, first compound 0.316 µM
[46] = second compound 0.316 µM, first compound 1 µM
[47] = second compound 0.316 µM, first compound 3.16 µM
[48] = second compound 0.316 µM, first compound 10 µM
[49] = second compound 1 µM, first compound 0.316 µM
[50] = second compound 1 µM, first compound 1 µM
[51] = second compound 1 µM, first compound 3.16 µM
[52] = second compound 1 µM, first compound 10 µM
[53] = second compound 3.16 µM, first compound 0.316 µM
[54] = second compound 3.16 µM, first compound 1 µM
[55] = second compound 3.16 µM, first compound 3.16 µM
[56] = second compound 3.16 µM, first compound 10 µM
[57] = second compound 10 µM, first compound 0.316 µM
[58] = second compound 10 µM, first compound 1 µM
[59] = second compound 10 µM, first compound 3.16 µM
[60] = second compound 10 µM, first compound 10 µM
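Also: spheroids exposed to agents for seven days before readout.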
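For viability, T/C in this document: percent of vehicle DMSO control viability so 100% = untreated growth.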

pIC50 (second compound 0.0316 µM): < 7.00 | pIC50 (second compound 0.1 µM): < 7.00 | pIC50 (second compound 0.316 µM): < 7.00 | pIC50 (second compound 1 µM): < 7.00 | pIC50 (second compound 3.16 µM): < 7.00 | pIC50 (second compound 10 µM): < 7.00
Compound: CC(=O)c1c(C)c2cnc(Nc3ccc(N4CCNCC4)cn3)nc2n(C2CCCC2)c1=O + CC(Nc1ncnc2nc[nH]c12)c1cc2cccc(Cl)c2c(=O)n1-c1ccccc1
viability, T/C [1]: 99.4% | viability, T/C [2]: 92.6% | viability, T/C [3]: 93% | viability, T/C [4]: 89.1% | viability, T/C [5]: 91.8% | viability, T/C [6]: 93.2% | viability, T/C [7]: 105% | viability, T/C [8]: 89.6% | viability, T/C [9]: 76.6% | viability, T/C [10]: 83.3% | viability, T/C [11]: 83% | viability, T/C [12]: 75.4% | viability, T/C [13]: 114% | viability, T/C [14]: 91.4% | viability, T/C [15]: 86.9% | viability, T/C [16]: 93.7% | viability, T/C [17]: 88.7% | viability, T/C [18]: 96.6% | viability, T/C [19]: 81.9% | viability, T/C [20]: 72.4% | viability, T/C [21]: 76.8% | viability, T/C [22]: 93.9% | viability, T/C [23]: 79.8% | viability, T/C [24]: 79.2% | viability, T/C [25]: 91.6% | viability, T/C [26]: 87.9% | viability, T/C [27]: 66.1% | viability, T/C [28]: 74.2% | viability, T/C [29]: 73.7% | viability, T/C [30]: 71.6% | viability, T/C [31]: 57.5% | viability, T/C [32]: 56.3% | viability, T/C [33]: 69.2% | viability, T/C [34]: 61.1% | viability, T/C [35]: 71.4% | viability, T/C [36]: 60.6%

pIC50 (second compound 0.0316 µM): 7.32 | pIC50 (second compound 0.1 µM): 7.43 | pIC50 (second compound 0.316 µM): 7.47 | pIC50 (second compound 1 µM): 7.49 | pIC50 (second compound 3.16 µM): 7.67 | pIC50 (second compound 10 µM): 7.95
Compound: CC(C)n1nc(-c2ccc3oc(N)nc3c2)c2c(N)ncnc21 + CC(Nc1ncnc2nc[nH]c12)c1cc2cccc(Cl)c2c(=O)n1-c1ccccc1
viability, T/C [1]: 91.7% | viability, T/C [2]: 93.5% | viability, T/C [3]: 89.5% | viability, T/C [4]: 95.5% | viability, T/C [5]: 65.6% | viability, T/C [6]: 21.7% | viability, T/C [7]: 94.1% | viability, T/C [8]: 97.9% | viability, T/C [9]: 71.1% | viability, T/C [10]: 77.5% | viability, T/C [11]: 55.1% | viability, T/C [12]: 24.2% | viability, T/C [13]: 95.3% | viability, T/C [14]: 79% | viability, T/C [15]: 83.5% | viability, T/C [16]: 87.4% | viability, T/C [17]: 52% | viability, T/C [18]: 22.4% | viability, T/C [19]: 96% | viability, T/C [20]: 88.6% | viability, T/C [21]: 83.5% | viability, T/C [22]: 69.8% | viability, T/C [23]: 50.8% | viability, T/C [24]: 22.7% | viability, T/C [25]: 79.2% | viability, T/C [26]: 76.9% | viability, T/C [27]: 78.5% | viability, T/C [28]: 64.2% | viability, T/C [29]: 42.8% | viability, T/C [30]: 22% | viability, T/C [31]: 74.1% | viability, T/C [32]: 60% | viability, T/C [33]: 68.1% | viability, T/C [34]: 47% | viability, T/C [35]: 39.4% | viability, T/C [36]: 18%

pIC50 (second compound 0.0316 µM): 5.30 | pIC50 (second compound 0.1 µM): 5.26 | pIC50 (second compound 0.316 µM): 5.27 | pIC50 (second compound 1 µM): 5.31 | pIC50 (second compound 3.16 µM): 5.32 | pIC50 (second compound 10 µM): 5.39
Compound: CCCS(=O)(=O)Nc1ccc(F)c(C(=O)c2c[nH]c3ncc(-c4ccc(Cl)cc4)cc23)c1F + CC(Nc1ncnc2nc[nH]c12)c1cc2cccc(Cl)c2c(=O)n1-c1ccccc1
viability, T/C [5]: 101% | viability, T/C [6]: 93.7% | viability, T/C [37]: 109% | viability, T/C [38]: 92.9% | viability, T/C [39]: 78.7% | viability, T/C [40]: 8.82% | viability, T/C [11]: 99.6% | viability, T/C [12]: 92.9% | viability, T/C [41]: 109% | viability, T/C [42]: 91.9% | viability, T/C [43]: 88.6% | viability, T/C [44]: 8.07% | viability, T/C [17]: 98.8% | viability, T/C [18]: 84% | viability, T/C [45]: 82.7% | viability, T/C [46]: 90.4% | viability, T/C [47]: 83.1% | viability, T/C [48]: 9.77% | viability, T/C [23]: 89.2% | viability, T/C [24]: 90.2% | viability, T/C [49]: 95.6% | viability, T/C [50]: 104% | viability, T/C [51]: 76.5% | viability, T/C [52]: 7.1% | viability, T/C [29]: 86.7% | viability, T/C [30]: 87.5% | viability, T/C [53]: 88.4% | viability, T/C [54]: 91.5% | viability, T/C [55]: 72.7% | viability, T/C [56]: 11.2% | viability, T/C [35]: 71.7% | viability, T/C [36]: 73.2% | viability, T/C [57]: 68.4% | viability, T/C [58]: 65% | viability, T/C [59]: 62.3% | viability, T/C [60]: 10.3%

pIC50 (second compound 0.0316 µM): < 5.00 | pIC50 (second compound 0.1 µM): < 5.00 | pIC50 (second compound 0.316 µM): < 5.00 | pIC50 (second compound 1 µM): < 5.00 | pIC50 (second compound 3.16 µM): < 5.00 | pIC50 (second compound 10 µM): < 5.00
Compound: CNC(=O)c1ccc(N2C(=S)N(c3ccc(C#N)c(C(F)(F)F)c3)C(=O)C2(C)C)cc1F + CC(Nc1ncnc2nc[nH]c12)c1cc2cccc(Cl)c2c(=O)n1-c1ccccc1
viability, T/C [5]: 103% | viability, T/C [6]: 83.9% | viability, T/C [37]: 91.7% | viability, T/C [38]: 85.1% | viability, T/C [39]: 98.2% | viability, T/C [40]: 93.4% | viability, T/C [11]: 86.4% | viability, T/C [12]: 83.5% | viability, T/C [41]: 113% | viability, T/C [42]: 91.2% | viability, T/C [43]: 86.2% | viability, T/C [44]: 78.6% | viability, T/C [17]: 102% | viability, T/C [18]: 79.5% | viability, T/C [45]: 90.5% | viability, T/C [46]: 90.2% | viability, T/C [47]: 88.7% | viability, T/C [48]: 78% | viability, T/C [23]: 80.9% | viability, T/C [24]: 94.9% | viability, T/C [49]: 90.9% | viability, T/C [50]: 89.6% | viability, T/C [51]: 94% | viability, T/C [52]: 80.6% | viability, T/C [29]: 85.7% | viability, T/C [30]: 73.2% | viability, T/C [53]: 75.7% | viability, T/C [54]: 74.3% | viability, T/C [55]: 86.4% | viability, T/C [56]: 62.2% | viability, T/C [35]: 63% | viability, T/C [36]: 71.8% | viability, T/C [57]: 70.9% | viability, T/C [58]: 70.5% | viability, T/C [59]: 69.8% | viability, T/C [60]: 59.3%

— PubChem BioAssay AID1963985 (Molecular Pharmacology Branch, DTP, NCI, 2024)
